Key:
[1] = test system: Immature gametocytes (>90% stage II/III); experiment: microbe, parasite or virus in culture; type: cell-based, Plasmodium falciparum; settings: 48 h drug pressure; for % Inhibition, immature gametocytes: maximum inhibition at 10 μM
Description: (§1) Compounds are diluted 3-fold in at least a 9-point serial dilution series starting at 20 μM, with a nonlethal DMSO concentration of <0.1% maintained. Luciferase activity was determined in 30 μL parasite lysates by adding 30 μL luciferin substrate (Promega Luciferase Assay System) at room temperature and detection of resultant bioluminescence at an integration constant of 10 s with the GloMax-Multi + Detection System with Instinct Software. Methylene blue (5 μM) and the clinical antimalarial candidate MMV390048 (5 μM) were used as controls. IC50 values were determined in GraphPad Prism using a nonlinear regression fit with variable slope (4-parameter) on the dose–response data.
(§2) Assay quality parameters are evaluated for each assay, including Z′-factors (data quality compared to reproducibility using signal, noise, and background parameters; accepted metric >0.6), regression (accepted r 2 > 0.9); >80% viable parasites (top plateau); <20% killed parasites (bottom plateau), hill slope ∼1.

[2] = test system: Mature gametocytes (>95% stage V); experiment: microbe, parasite or virus in culture; type: cell-based, Plasmodium falciparum; settings: 48 h drug pressure; for % Inhibition, mature gametocytes: maximum inhibition at 10 μM
Description: as §1, §2

β-hematin formation = experiment: NP-40 detergent-mediated β-hematin formation inhibition assay (cell-free); type: biochemical; settings: NP-40, pH 4.8, 5 h, 37 °C, read-out: β-hematin formation inhibition IC50 ± SEM
Excerpt: The ability of a compound to inhibit Hz formation can be predicted using the biomimetic cell-free NP40 detergent-mediated β-hematin formation inhibition assay. , This assay mimics the conditions in the acidic DV of the parasite and relies on the binding of pyridine to uncrystallized free heme to detect the inhibition of β-hematin formation using UV–vis spectroscopy (with absorbance measured at 405 nm). , Consequently, the ability of the ferrocenyl quinoline-benzimidazole hybrids (C1–C5) to inhibit β-hematin (synthetic Hz) formation was investigated as a potential mechanism of antiplasmodial action.
The β-hematin formation inhibition assay was modified from the method reported by Sandlin et al. , Stock solutions of the respective test compounds were prepared to 10 mM, in 100% DMSO, with the exception of CQ (used in the salt form, CQDP), which was prepared in Milli-Q water. […] NP-40 is a detergent used to mediate the formation of β-hematin. The solution in column 12 was then serially diluted 2-fold, through to column 2, to give a total of 11 concentrations. Column 1 contained 0 μM of the test compound and thus served as a blank. […] A 178.8 μL aliquot of this hematin suspension was added to 20.0 mL of a 2 M acetate buffer (pH = 4.8) and 100 μL of this solution added to each well. The plates were then covered and incubated for 5 h, at 37 °C. The assay was analyzed using the pyridine-ferrochrome method developed by Ncokazi and Egan. A solution containing water/acetone/2 M HEPES buffer (pH 7.4)/pyridine, in a v/v ratio of 2/2/1/5, was prepared and 32 μL was added to all wells, followed by 60 μL of acetone. The absorbance values were then measured at 405 nm, the results plotted using GraphPad Prism (v5), and the IC50 values obtained using a sigmoidal dose–response curve fitting analysis.

[3] = Hydroxyl radical (ROS) generation with H2O2, DCFH2 fluorescent probe; settings: 200 μM in 1:4 DMSO/PBS, H2O2 and H2DCF added, 30 min
Excerpt: Fluorogenic redox-sensitive probes are often employed to measure the presence of ROS, due to their low cost, ease of use, and nontoxicity, allowing for spectrofluorimetric measurements. 2′,7′-Dichlorodihydrofluorescein diacetate (DCFH2-DA) is the most widely used fluorogenic probe. Cleavage of the acetate groups, through alkaline hydrolysis, generates 2′,7′-dichlorodihydrofluorescein (DCFH2), which in the presence of oxidants, yields the highly fluorescent 2′,7′-dichlorofluorescein (DCF, λem = 523 nm). The DCFH2 probe reacts with an array of oxidants, making it an ideal indicator of general oxidative stress. […] The presence of these radicals was confirmed by monitoring the fluorescence over time (Figure ). […].
Stock solutions of DCFH2-DA were prepared to 1 mM in 100% DMSO and stored at −20 °C in the dark until use. The deacetylation of DCFH2-DA involved adding 2 μL of a 0.5 M NaOH solution to 200 μL of the 1 mM DCFH2-DA stock solution. The solution was mixed for 30 min, in the dark, at room temperature and then quenched with 800 μL of PBS buffer to obtain a 200 μM H2DCF 1:4 DMSO/PBS solution mixture.
[…]. The fluorometer was blanked using a 1:4 DMSO/PBS solution mixture. To identify hydroxyl radical production, 2 μL of a 0.5% H2O2 solution was added to 900 μL of the 200 μM complex solution in a cuvette at 25 °C. 100 μL of the prepared H2DCF solution (200 μM) was quickly added, and the readings recorded at 530 nm (emission wavelength), at 2 min intervals, over 30 min.

[4] = Cyclic voltammetry of the ferrocene/ferrocenium couple; type: physicochemical; settings: for Reversibility of the ferrocene/ferrocenium couple: DCM/0.1 M TBAP system
Description: It has been proposed that the oxidation of ferrocene (Fe(C5H5)2) to the ferrocenium cation (Fe(C5H5)2 ^+) is a reversible one-electron transfer process. […] This prompted the investigation into the electrochemical properties of the Fe(C5H5)2/Fe(C5H5)2 ^+ couple in complexes C1–C5, using cyclic voltammetry. FQ was used as the reference, as it is considered the benchmark for all newly developed ferrocenyl-based antiplasmodials.
Nuclear magnetic resonance (NMR) spectra were recorded on a Bruker XR600 MHz spectrometer (^1H at 599.95 MHz and ^13C{^1H} at 151.0 MHz), a Bruker […] (^1H at 400.22 MHz and ^13C{^1H} at 100.65 MHz), or a Varian Mercury 300 (^1H at 300.08 MHz) spectrometer. These were equipped with a Bruker Biospin GmbH casing and sample injector at 30 °C and tetramethylsilane (TMS) was used as the internal standard. Coupling constants are reported in Hz and chemical shifts are reported in ppm relative to residual solvent signals. Infrared (IR) spectroscopy was performed on a PerkinElmer Spectrum 100 FT-IR spectrometer, using attenuated total reflectance (ATR), with vibrations measured in units of cm^–1. Cyclic voltammetric measurements were carried out at ambient temperature under an inert argon atmosphere using a three-electrode system on a BASi Epsilon Eclipse potentiostat/galvanostat electrochemical workstation. The C-3 cell stand, equipped with a glassy carbon working electrode, Ag/AgCl (saturated NaCl) reference electrode, and a Pt wire auxiliary electrode were used to carry out electrochemical measurements. All experiments were carried out in anhydrous dichloromethane containing 0.10 M tetra-n-butylammonium perchlorate (TBAP) as the supporting electrolyte.

[5] = scan rate 100 mV/s, CH2Cl2, 0.1 M TBAP
[6] = vs Ag/AgCl, scan rate 100 mV/s, CH2Cl2, 0.1 M TBAP

Compound	% Inhibition, immature gametocytes [1]	% Inhibition, mature gametocytes [2]	IC50 (β-hematin formation)	Hydroxyl radical generation (fluorescence intensity over time) [3]	Reversibility of the ferrocene/ferrocenium couple [4]	Ipc/Ipa [4, 5]	ΔE [4, 5]	Anodic peak potential Epa [4, 6]	Cathodic peak potential Epc [4, 6]	Half-wave potential E1/2 [4, 6]	IC50 ([1]; read-out: IC50 ± S.E., immature gametocytes)	IC50 ([2]; read-out: IC50 ± S.E., mature gametocytes)
Cc1ccc2c(c1)nc(-[c-]1cccc1)n2CCCNc1ccnc2cc(Cl)ccc12.[Fe+2].c1cc[cH-]c1 [Complex C1, 7-chloro-N-(3-(5-(methyl)-2-ferrocenyl-1H-benzo[d]imidazole-1-yl)propyl)quinolin-4-amine]	3%	7%	7.26 µM	no changes in the fluorescence intensity	chemically and electrochemically reversible	1.04	0.127 V	0.638 V	0.510 V	0.574 V	–	–
Cc1ccc2c(c1)nc(-[c-]1cccc1CN(C)C)n2CCCNc1ccnc2cc(Cl)ccc12.[Fe+2].c1cc[cH-]c1 (stereo not drawn) [Complex C3, 7-Chloro-N-(3-(5-methyl-2-(2-N,N-dimethylaminomethyl)ferrocenyl-1H-benzo[d]-imidazole-1-yl)propyl) Quinoline-4-amine]	88%	99%	5.42 µM	produce hydroxyl radicals	chemically and electrochemically irreversible	–	–	0.678 V	–	–	2.35 µM	7.27 µM
